Data as given in US9186338B2, “Solubility enhancer and use thereof” (priority 2005, dated 2015).

Excerpt: In accordance with yet another aspect of the present invention, there is provided a method for determining the solubility of said drugs, wherein the method comprises incremental addition of said drugs taken from stock to said solubility enhancer, shaking the resultant in an ultrasonic bath to obtain clear solution and determining the solubility.
The solutions of Isotretinoin were made by incremental addition technique, i.e. by adding portions of the drug from pre-weighed stock (Isotretinoin) to known volume of the alkanamide solution and shaking in an ultrasonic bath till the solution was clear. Thereafter the second weight was recorded & solubility was determined.
(§1) Thereafter the second weight was recorded & solubility was determined.
as §1

## CC1=C(/C=C/C(C)=C/C=C/C(C)=C\C(=O)O)C(C)(C)CCC1 [Isotretinoin]
  amount of drug solubilized in 1 ml of Hexanamide: 206 mg
  amount of drug solubilized in 1 ml of Octanamide: 139.2 mg
  solubility in Hexanamide: 20.6 % w/v
  solubility in Octanamide: 13.92 % w/v
